This test concerns the target T1, human CPT1A (Homo sapiens, UniProt P50416).
T1 construct: made in house; host or cells: Saccharomyces cerevisiae (pESC-trp) or cultured mammalian cells (pCDNA3.1); mitochondrial extract
T1 sequence (P50416 1-773): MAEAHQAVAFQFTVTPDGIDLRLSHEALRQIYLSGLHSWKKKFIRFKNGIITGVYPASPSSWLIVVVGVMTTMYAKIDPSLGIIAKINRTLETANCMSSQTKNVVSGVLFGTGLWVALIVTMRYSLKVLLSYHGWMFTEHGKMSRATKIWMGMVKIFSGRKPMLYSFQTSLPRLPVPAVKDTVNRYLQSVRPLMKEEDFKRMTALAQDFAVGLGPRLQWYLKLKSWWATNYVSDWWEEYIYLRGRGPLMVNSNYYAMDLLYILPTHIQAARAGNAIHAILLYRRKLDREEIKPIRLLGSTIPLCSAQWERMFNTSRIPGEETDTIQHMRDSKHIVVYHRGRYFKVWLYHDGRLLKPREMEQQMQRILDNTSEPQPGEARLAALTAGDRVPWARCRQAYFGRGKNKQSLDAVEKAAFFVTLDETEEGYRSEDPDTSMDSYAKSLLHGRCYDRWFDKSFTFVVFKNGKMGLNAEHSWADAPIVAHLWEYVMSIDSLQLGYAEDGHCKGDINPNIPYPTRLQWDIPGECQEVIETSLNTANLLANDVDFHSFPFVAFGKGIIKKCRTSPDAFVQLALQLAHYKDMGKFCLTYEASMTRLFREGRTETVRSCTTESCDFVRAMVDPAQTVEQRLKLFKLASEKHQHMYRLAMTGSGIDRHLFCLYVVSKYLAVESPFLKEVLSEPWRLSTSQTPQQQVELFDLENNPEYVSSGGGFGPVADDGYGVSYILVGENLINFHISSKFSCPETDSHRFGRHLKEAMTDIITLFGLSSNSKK
In words: Human CPT1A LC/MS assay. It is filed as biochemical. The note with it: human CPT1A LC/MS assay, dose response format. A digest of the protocol: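 Mitochondrial extracts (1.6 μg protein) expressing human CPT1A, preincubated 10 min with compound in 20% DMSO, then reacted 10 min at room temperature with 20 μM palmitoyl-CoA, 50 μM L-carnitine (pH 7.5). Palmitoyl carnitine was quantified by LC/MS against a myristoyl carnitine standard; 16-point, 2-fold titrations gave dose response.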

Data on eight compounds can be found in US8410150B2, “Inhibitors of carnitine palmitoyltransferase and treating cancer” (University Health Network, priority 2007, dated 2013).

Some results are limits rather than exact numbers.

For orientation: IC50 means the midpoint of a concentration-inhibition curve. High values mean lower potency, low ones higher potency.

In the case of `CCCCCCCCCCc1ccc(S(=O)(=O)N[C@H](CC(=O)O)C[N+](C)(C)C)cc1` [Example S75, (R)-3-carboxy-2-(4-decylphenylsulfonamido)-N,N,N-trimethylpropan-1-aminium 2,2,2-trifluoroacetate], the IC50 is 1 to 10 µM.

As for `CCCCCCCCCCc1ccc(C(=O)N[C@H](CC(=O)[O-])C[N+](C)(C)C)cc1` [Example S66, (R)-3-(4-decylbenzamido)-4-(trimethylammonio)butanoate], the IC50 is not above 1 µM.

Turning to `CCCCCCCCc1ccc(NC(=O)N[C@H](CC(=O)[O-])C[N+](C)(C)C)cc1` [Example S7, (R)-3-(3-(4-octylphenyl)ureido)-4-(trimethylammonio)butanoate], the IC50 lay in the range of 1 to 10 µM.

In turn, `CCCCCCCOc1ccc(NC(=O)N[C@H](CC(=O)[O-])C[N+](C)(C)C)cc1` [Example S10, (R)-3-(3-(4-(heptyloxy)phenyl)ureido)-4-(trimethylammonio)butanoate] gave an IC50 of 10 to 100 µM.

On to `CCCCCCCCCCCCc1ccc(NS(=O)(=O)N[C@H](CC(=O)O)C[N+](C)(C)C)cc1` [Example S89, (R)-3-(N-(4-dodecylphenyl)sulfamoylamino)-4-(trimethylammonio)-butanoate], for which the IC50 was not above 1 µM.

Compound `CCCCCCCCCCOc1ccc(C(=O)N[C@H](CC(=O)O)C[N+](C)(C)C)cc1` [Example S63, (R)-3-(4-(decyloxy)benzamido)-4-(trimethylammonio)butanoate 2,2,2-trifluoroacetate] had an IC50 not above 1 µM.

As to `CCCCCCCCCCCCCCc1ccc(NS(=O)(=O)N[C@H](CC(=O)O)C[N+](C)(C)C)cc1` [Example S90, (R)-3-(N-(4-tetradecylphenyl)sulfamoylamino)-4-(trimethylammonio)-butanoate], the IC50 was not above 1 µM.

Regarding `CCCCCCCCCCOc1cccc(C(=O)N[C@H](CC(=O)[O-])C[N+](C)(C)C)c1` [Example S67, (R)-3-(3-(decyloxy)benzamido)-4-(trimethylammonio)butanoate], the IC50 was 10 to 100 µM.
